Results reported in patent US10174331B2, “Methods and compositions for nuclease-mediated targeted integration of transgenes” (Sangamo BioSciences, Inc., priority 2012, dated 2019).

Columns and labels:
[1] = tested on: scutella of wheat cv. Bobwhite MPB26RH and cv. Clearfield Janz; assay: Basal tolerance to IMAZAMOX at callus induction stage; assay type: cell-based, Triticum aestivum
Protocol: A series of experiments were performed to determine optimal selection conditions for regenerating AHAS edited wheat plants. These experiments were based on testing the basal tolerance to IMAZAMOX™ of the donor wheat line cv. Bobwhite MPB26RH(S653/S653 genotype) at the callus induction, plant regeneration and rooting stages of an established wheat transformation system. Similar experiments were performed to determine the basal tolerance and resistance of cv. Clearfield Janz genotypes carrying the different doses of the S653N mutation; i.e., plants with N653/N653 and S653/S653 genotypes.
The basal tolerance of the donor wheat line cv. Bobwhite MPB26RH and basal resistance of cv. Clearfield Janz (N653/N653) genotype to IMAZAMOX® at the callus induction stage was determined as follows: Scutella of immature zygotic embryos from each wheat line were isolated as described previously and placed in 10 cm PETRI™ dishes containing CIM medium supplemented with 0, 50, 100, 200, 300, 400 and 500 nM IMAZAMOX® respectively. Twenty scutella were placed in each PETRI™ dish. A total of 60 scutella from each of the donor wheat line cv. Bobwhite MPB26RH and cv. […] After incubation at 24° C. in the dark for 4 weeks, the amount of somatic embryogenic callus formation (SEC) at each IMAZAMOX® concentration was recorded. […]

[2] = tested on: wheat cv. Bobwhite MPB26RH and cv. Clearfield Janz; assay: Basal tolerance to IMAZAMOX at plant regeneration stage; assay type: in vivo, Triticum aestivum
Protocol: The basal tolerance of the donor wheat line cv. Bobwhite MPB26RH to IMAZAMOX® at the plant regeneration stage was determined as follows: Scutella of immature zygotic embryos from the donor wheat line were isolated as described previously and placed in 10 cm PETRI™ dishes containing CIM medium. Somatic embryogenic callus was allowed to form by incubating at 24° C. in the dark for 4 weeks. The SEC was transferred to 10 cm PETRI™ dishes containing DRM medium supplemented with 0, 100, 200, 300, 400, 500 and 1000 nM IMAZAMOX® respectively. Twenty CIM were placed in each PETRI™ dish. A total of 60 CIM were tested for basal tolerance response at each IMAZAMOX® concentration. After incubation for 2 weeks at 24° C. under a 16/8 (light/dark) hour photoperiod in a growth room, the regeneration response was recorded.
The basal tolerance of the cv. Clearfield Janz (S653/S653) genotype and basal resistance of the cv. Clearfield Janz (N653/N653) genotype to IMAZAMOX® at the plant regeneration stage was determined using a modified approach, as cv. […] Seed for each cv. Clearfield Janz genotype was germinated using the aseptic approach described above for producing wheat mesophyll protoplasts. […] After incubation for 3 weeks at 24° C. under a 16/8 (light/dark) hour photoperiod in a growth room, the growth response was recorded. […]

[3] = tested on: wheat cv. Bobwhite MPB26RH; assay: Basal tolerance to sulfometuron methyl at plant regeneration stage; assay type: in vivo, Triticum aestivum; details: wild-type cv. Bobwhite MPB26RH; 2000 nM; 2 weeks
Protocol: The basal tolerance of the wild-type donor wheat line to sulfometuron methyl at the plant regeneration stage was determined as follows: Scutella of immature zygotic embryos from the donor wheat line were isolated and placed in 10 cm PETRI™ dishes containing CIM medium. Somatic embryogenic callus was allowed to form by incubating at 24° C. in the dark for 4 weeks. The SEC was transferred to 10 cm PETRI™ dishes containing DRM medium supplemented with 0, 100, 500, 1000, 1500, 2000, 2500 and 3000 nM sulfometuron methyl, respectively. Twenty CIM were placed in each PETRI™ dish. A total of 60 CIM were tested for basal tolerance response at each sulfometuron methyl concentration. After incubation for 2 weeks at 24° C. under a 16/8 (light/dark) hour photoperiod in a growth room, the regeneration response was recorded.

[4] = tested on: wheat cv. Bobwhite MPB26RH, wild-type and AHAS(P197S) transgenic events; assay: Basal tolerance to sulfometuron methyl at plant rooting stage; assay type: in vivo, Triticum aestivum; details: wild-type donor wheat line; concentrations higher than 400 nM; 3 weeks
Protocol: The basal tolerance of the wild-type donor wheat line to sulfometuron methyl at the plant rooting stage was determined as follows: Scutella of immature zygotic embryos were isolated and placed in 10 cm PETRI™ dishes containing CIM medium. Somatic embryogenic callus was allowed to form by incubating at 24° C. in the dark for 4 weeks. The SEC was transferred to 10 cm PETRI™ dishes containing DRM medium and incubated for 2 weeks at 24° C. under a 16/8 (light/dark) hour photoperiod to allow plant regeneration to take place. Regenerated plants were transferred to 10 cm PETRI™ dishes containing RM medium supplemented with 0, 100, 200, 250, 300, 400, 500, 1000 and 2000 nM sulfometuron methyl, respectively. Ten regenerated plants were placed in each PETRI™ dish. […] After incubation for 3 weeks at 24° C. under a 16/8 (light/dark) hour photoperiod in a growth room, the root formation response was recorded.
The basal tolerance of transgenic wheat events with randomly integrated, low-copy (≤3) T-DNA expressing the AHAS(P197S) mutation to sulfometuron methyl at the plant rooting stage was determined as follows: Four independent transgenic events were randomly selected and multiplied in vitro by sub-culturing on multiplication medium. […] After incubation for 2 weeks at 24° C. under a 16/8 (light/dark) hour photoperiod in a growth room, the root formation response was recorded.

[5] = tested on: scutella of wheat cv. Bobwhite MPB26RH; assay: Basal tolerance to sulfometuron methyl at callus induction stage; assay type: cell-based, Triticum aestivum; details: 100 nM, 4 weeks
Protocol: A series of experiments were performed to determine optimal selection conditions for regenerating wheat plants expressing the AHAS(P197S) mutation conferring tolerance to sulfonylurea class herbicides. These experiments were based on testing the basal tolerance of the wild-type donor wheat line cv. Bobwhite MPB26RH (P197/P197 genotype, which confers susceptibility to sulfonylureas) at the callus induction, plant regeneration and rooting stages of an established wheat transformation system. Similar experiments were performed to determine the basal tolerance of transgenic cv. Bobwhite MPB26RH events that had randomly integrated T-DNA expressing the AHAS(P197) mutation, which confers tolerance to sulfonylurea selection agents.
The basal tolerance of the wild-type donor wheat line to sulfometuron methyl at the callus induction stage was determined as follows: Scutella of immature zygotic embryos were isolated, as previously described, and placed in 10 cm PETRI™ dishes containing CIM medium supplemented with 0, 100, 500, 1000, 1500 and 2000 nM sulfometuron methyl, respectively. Twenty scutella were placed in each PETRI™ dish. A total of 60 scutella were tested at each sulfometuron methyl concentration. After incubation at 24° C. in the dark for 4 weeks, the amount of somatic embryogenic callus formation (SEC) at each sulfometuron methyl concentration was recorded. […]

Row | SMILES | reduction of SEC formation compared to untreated samples ([1]; cv. Bobwhite MPB26RH, 100 nM, 4 weeks) | callus formation relative to the untreated control ([1]; cv. Clearfield Janz (N653/N653), any concentration tested (50-500 nM)) | reduction of plant regeneration compared to untreated samples ([2]; cv. Bobwhite MPB26RH, 200 nM, 2 weeks) | concentration that had to be exceeded before plant growth was strongly suppressed ([2]; cv. Clearfield Janz (N653/N653), 3 weeks) | reduction of plant regeneration compared to untreated samples [3] | root formation compared to untreated samples [4] | reduction of SEC formation compared to untreated samples [5]
1 | COCc1cnc(C2=NC(C)(C(C)C)C(=O)N2)c(C(=O)O)c1 (stereo not shown) [IMAZAMOX] | about 70% | unaffected | about 80% | exceeded 2,000 nM |  |  | 
2 | COC(=O)c1ccccc1S(=O)(=O)NC(=O)Nc1nc(C)cc(C)n1 [sulfometuron methyl] |  |  |  |  | about 80% | severely inhibited | about 70%
